Measurements published in patent US20190307843A1, “SINGLE DOSE METHODS FOR PREVENTING AND TREATING FUNGAL INFECTIONS” (Cidara Therapeutics, Inc., priority 2016, published 2019).
Where two headings read alike, the source gives them in different places. Starred links: 1 amine or outer side, 2 acyl side, 3 side chain; linkers in the order of their positions; H or OH if unused. Positions of bridges follow the written chain, without caps; N, C: chain ends. Non-standard residues stand in square brackets, D forms with d. Residues, ends and D or L forms follow the SMILES beside them. *: point of attachment. Orn(4R-OH,5R-OCH2CH2NMe3+) = C[N+](C)(C)CCO[C@@H](N[*:3])[C@H](O)C[C@H](N[*:1])C(=O)[*:2]; pTerphenylCO(4''-OnC5H11) = CCCCCOc1ccc(-c2ccc(-c3ccc(C(=O)*)cc3)cc2)cc1; hTyr(3S-OH,4S-OH) = N[C@H](C(=O)O)[C@H](O)[C@@H](O)c1ccc(O)cc1; Pro(3S-OH,4S-Me) = C[C@H]1CN[C@H](C(=O)O)[C@H]1O; Hyp = O=C(O)[C@@H]1C[C@@H](O)CN1

Columns and labels:
Candida auris strains = test: Candida auris antifungal susceptibility testing (CLSI M27-A3), 38 strains; assay type: cell-based; conditions: for MIC: Candidozyma auris, read-out: MIC
C. albicans strain 529L = test: Rat model of vulvovaginal candidiasis, vaginal lavage and tissue burden; assay type: in vivo, Candida albicans; conditions: 5 mg/kg SC Dosed Once
[1] = lavage Day 1 post infection, pre-treatment

Molecule `CCCCCOc1ccc(-c2ccc(-c3ccc(C(=O)N[C@H]4C[C@@H](O)[C@@H](OCC[N+](C)(C)C)NC(=O)[C@@H]5[C@@H](O)[C@@H](C)CN5C(=O)[C@H]([C@@H](C)O)NC(=O)[C@H]([C@H](O)[C@@H](O)c5ccc(O)cc5)NC(=O)[C@@H]5C[C@@H](O)CN5C(=O)[C@H]([C@@H](C)O)NC4=O)cc3)cc2)cc1` [CD101] ({pTerphenylCO(4''-OnC5H11)}-[Orn(4R-OH,5R-OCH2CH2NMe3+)]T[Hyp][hTyr(3S-OH,4S-OH)]T[Pro(3S-OH,4S-Me)]; lactam 1-C) has an MIC (Candida auris strains; 24 h, strain 1 VPCI 669/P/12, 24 h) of 0.5 µg/mL, an MIC (Candida auris strains; 24 h, strain 2 VCPI 671/P/12, 24 h) of 0.5 µg/mL and an MIC (Candida auris strains; 24 h, strain 3 VCPI 674/P/12, 24 h) of 0.25 µg/mL. The MIC (Candida auris strains; 24 h, strain 4 VCPI 683/P/12, 24 h) was 0.5 µg/mL, the MIC (Candida auris strains; 24 h, strain 5 VCPI 692/P/12, 24 h) was 0.5 µg/mL and the MIC (Candida auris strains; 24 h, strain 6 VCPI 712/P/12, 24 h) was 0.25 µg/mL. For the same molecule, the MIC (Candida auris strains; 24 h, strain 7 VCPI 471/P/13, 24 h) was 0.5 µg/mL, the MIC (Candida auris strains; 24 h, strain 8 VCPI 475/P/13, 24 h) was 0.5 µg/mL and the MIC (Candida auris strains; 24 h, strain 9 VCPI 478/P/13, 24 h) was 0.25 µg/mL. The MIC (Candida auris strains; 24 h, strain 10 VCPI 479/P/13, 24 h) was 0.25 µg/mL, the MIC (Candida auris strains; 24 h, strain 11 VCPI 480/P/13, 24 h) was 0.25 µg/mL and the MIC (Candida auris strains; 24 h, strain 12 VCPI 482/P/13, 24 h) was 0.25 µg/mL. For the same molecule, the MIC (Candida auris strains; 24 h, strain 13 VCPI 483/P/13, 24 h) was 0.25 µg/mL, the MIC (Candida auris strains; 24 h, strain 14 VCPI 1130/P/13, 24 h) was 0.5 µg/mL and the MIC (Candida auris strains; 24 h, strain 15 VCPI 1132/P/13, 24 h) was 0.5 µg/mL. The MIC (Candida auris strains; 24 h, strain 16 VCPI 1133/P/13, 24 h) was 16 µg/mL, the MIC (Candida auris strains; 24 h, strain 17 VCPI 105/P/14, 24 h) was 0.25 µg/mL and the MIC (Candida auris strains; 24 h, strain 18 VCPI 107/P/14, 24 h) was 0.125 µg/mL. The MIC (Candida auris strains; 24 h, strain 19 VCPI 510/P/14, 24 h) was 0.25 µg/mL, the MIC (Candida auris strains; 24 h, strain 20 VCPI 511/P/14, 24 h) was 0.25 µg/mL and the MIC (Candida auris strains; 24 h, strain 21 VCPI 512/P/14, 24 h) was 0.25 µg/mL. It also gave an MIC (Candida auris strains; 24 h, strain 22 VCPI 513/P/14, 24 h) of 0.5 µg/mL, an MIC (Candida auris strains; 24 h, strain 23 VCPI 514/P/14, 24 h) of 0.5 µg/mL and an MIC (Candida auris strains; 24 h, strain 24 VCPI 250/P/14, 24 h) of 0.25 µg/mL. It also gave an MIC (Candida auris strains; 24 h, strain 25 VCPI 265/P/14, 24 h) of 16 µg/mL, an MIC (Candida auris strains; 24 h, strain 26 VCPI 266/P/14, 24 h) of 0.5 µg/mL and an MIC (Candida auris strains; 24 h, strain 27 VCPI 462/P/14, 24 h) of 16 µg/mL. The MIC (Candida auris strains; 24 h, strain 28 VCPI 463/P/14, 24 h) was 0.125 µg/mL, the MIC (Candida auris strains; 24 h, strain 29 VCPI 467/P/14, 24 h) was 0.25 µg/mL and the MIC (Candida auris strains; 24 h, strain 30 VCPI 471a/P/14, 24 h) was 16 µg/mL. The MIC (Candida auris strains; 24 h, strain 31 VCPI 478/P/14, 24 h) was 0.5 µg/mL, the MIC (Candida auris strains; 24 h, strain 32 VCPI 518/P/14, 24 h) was 0.5 µg/mL and the MIC (Candida auris strains; 24 h, strain 33 VCPI 550/P/14, 24 h) was 0.5 µg/mL. It also gave an MIC (Candida auris strains; 24 h, strain 34 VCPI 714/P/14, 24 h) of 0.25 µg/mL, an MIC (Candida auris strains; 24 h, strain 35 VCPI 717/P/14, 24 h) of 0.25 µg/mL and an MIC (Candida auris strains; 24 h, strain 36 VCPI 1060/P/14, 24 h) of 0.25 µg/mL. The MIC (Candida auris strains; 24 h, strain 37 VCPI 74/P/15, 24 h) was 0.25 µg/mL, the MIC (Candida auris strains; 24 h, strain 38 VCPI 213/P/15, 24 h) was 0.25 µg/mL and the MIC (Candida auris strains; 48 h, strain 1 VPCI 669/P/12, 48 h) was 0.5 µg/mL. It also gave an MIC (Candida auris strains; 48 h, strain 2 VCPI 671/P/12, 48 h) of 0.5 µg/mL, an MIC (Candida auris strains; 48 h, strain 3 VCPI 674/P/12, 48 h) of 0.25 µg/mL and an MIC (Candida auris strains; 48 h, strain 4 VCPI 683/P/12, 48 h) of 0.5 µg/mL. It also gave an MIC (Candida auris strains; 48 h, strain 5 VCPI 692/P/12, 48 h) of 0.5 µg/mL, an MIC (Candida auris strains; 48 h, strain 6 VCPI 712/P/12, 48 h) of 0.25 µg/mL and an MIC (Candida auris strains; 48 h, strain 7 VCPI 471/P/13, 48 h) of 0.5 µg/mL. For the same molecule, the MIC (Candida auris strains; 48 h, strain 8 VCPI 475/P/13, 48 h) was 0.5 µg/mL, the MIC (Candida auris strains; 48 h, strain 9 VCPI 478/P/13, 48 h) was 0.25 µg/mL and the MIC (Candida auris strains; 48 h, strain 10 VCPI 479/P/13, 48 h) was 0.25 µg/mL. It also gave an MIC (Candida auris strains; 48 h, strain 11 VCPI 480/P/13, 48 h) of 0.25 µg/mL, an MIC (Candida auris strains; 48 h, strain 12 VCPI 482/P/13, 48 h) of 0.25 µg/mL and an MIC (Candida auris strains; 48 h, strain 13 VCPI 483/P/13, 48 h) of 0.25 µg/mL. For the same molecule, the MIC (Candida auris strains; 48 h, strain 14 VCPI 1130/P/13, 48 h) was 0.25 µg/mL, the MIC (Candida auris strains; 48 h, strain 15 VCPI 1132/P/13, 48 h) was 0.25 µg/mL and the MIC (Candida auris strains; 48 h, strain 16 VCPI 1133/P/13, 48 h) was greater than 16 µg/mL. It also gave an MIC (Candida auris strains; 48 h, strain 17 VCPI 105/P/14, 48 h) of 0.25 µg/mL, an MIC (Candida auris strains; 48 h, strain 18 VCPI 107/P/14, 48 h) of 0.125 µg/mL and an MIC (Candida auris strains; 48 h, strain 19 VCPI 510/P/14, 48 h) of 0.25 µg/mL. For the same molecule, the MIC (Candida auris strains; 48 h, strain 20 VCPI 511/P/14, 48 h) was 0.25 µg/mL, the MIC (Candida auris strains; 48 h, strain 21 VCPI 512/P/14, 48 h) was 0.25 µg/mL and the MIC (Candida auris strains; 48 h, strain 22 VCPI 513/P/14, 48 h) was 0.5 µg/mL. For the same molecule, the MIC (Candida auris strains; 48 h, strain 23 VCPI 514/P/14, 48 h) was 0.5 µg/mL, the MIC (Candida auris strains; 48 h, strain 24 VCPI 250/P/14, 48 h) was 0.25 µg/mL and the MIC (Candida auris strains; 48 h, strain 25 VCPI 265/P/14, 48 h) was greater than 16 µg/mL. For the same molecule, the MIC (Candida auris strains; 48 h, strain 26 VCPI 266/P/14, 48 h) was 0.25 µg/mL, the MIC (Candida auris strains; 48 h, strain 27 VCPI 462/P/14, 48 h) was greater than 16 µg/mL and the MIC (Candida auris strains; 48 h, strain 28 VCPI 463/P/14, 48 h) was 0.125 µg/mL. The MIC (Candida auris strains; 48 h, strain 29 VCPI 467/P/14, 48 h) was 0.25 µg/mL, the MIC (Candida auris strains; 48 h, strain 30 VCPI 471a/P/14, 48 h) was greater than 16 µg/mL and the MIC (Candida auris strains; 48 h, strain 31 VCPI 478/P/14, 48 h) was 1 µg/mL. It also gave an MIC (Candida auris strains; 48 h, strain 32 VCPI 518/P/14, 48 h) of 0.5 µg/mL, an MIC (Candida auris strains; 48 h, strain 33 VCPI 550/P/14, 48 h) of 1 µg/mL and an MIC (Candida auris strains; 48 h, strain 34 VCPI 714/P/14, 48 h) of 0.25 µg/mL. For the same molecule, the MIC (Candida auris strains; 48 h, strain 35 VCPI 717/P/14, 48 h) was 0.25 µg/mL, the MIC (Candida auris strains; 48 h, strain 36 VCPI 1060/P/14, 48 h) was 0.25 µg/mL and the MIC (Candida auris strains; 48 h, strain 37 VCPI 74/P/15, 48 h) was 0.25 µg/mL. For the same molecule, the MIC (Candida auris strains; 48 h, strain 38 VCPI 213/P/15, 48 h) was 0.25 µg/mL, the “number of resistant isolates” value (Candida auris strains; of 38 C. auris isolates) was 4 and the “Group Geometric mean” value (C. albicans strain 529L; [1]) was 9.11 × 10^2 CFU/mL. For the same molecule, the “Log Group Geometric mean” value (C. albicans strain 529L; [1]) was 2.96 CFU/mL, the “Log reduction from vehicle control” value (C. albicans strain 529L; [1]) was −0.52 CFU/mL and the “Group Geometric mean” value (C. albicans strain 529L; lavage Day 2 post infection) was 3.34 × 10^2 CFU/mL. The “Log Group Geometric mean” value (C. albicans strain 529L; lavage Day 2 post infection) was 2.52 CFU/mL, the “Log reduction from vehicle control” value (C. albicans strain 529L; lavage Day 2 post infection) was 1.17 CFU/mL and the “Group Geometric mean” value (C. albicans strain 529L; lavage Day 3 post infection) was 1.21 × 10^2 CFU/mL. For the same molecule, the “Log Group Geometric mean” value (C. albicans strain 529L; lavage Day 3 post infection) was 2.08 CFU/mL and the “Log reduction from vehicle control” value (C. albicans strain 529L; lavage Day 3 post infection) was 1.49 CFU/mL.
